PubChem BioAssay (NCI)
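Each compound was tested at five concentrations against cells in 96-well plates for 48 hours. GI50 is the concentration that inhibits growth by half. TGI is the concentration that stops growth completely.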

Key:
Assay in all cases: inhibition of tumour cell growth, NCI panel, 48 h
RPMI-8226 leukemia = test system: RPMI-8226 leukemia
MOLT-4 leukemia = test system: MOLT-4 leukemia
OVCAR-4 ovarian = test system: OVCAR-4 ovarian
KM12 colon = test system: KM12 colon
SN12C renal = test system: SN12C renal
UACC-62 melanoma = test system: UACC-62 melanoma
SF-295 CNS = test system: SF-295 CNS
LOX IMVI melanoma = test system: LOX IMVI melanoma
ACHN renal = test system: ACHN renal
MALME-3M melanoma = test system: MALME-3M melanoma

SMILES	TGI (RPMI-8226 leukemia) [µM]	TGI (MOLT-4 leukemia) [µM]	TGI (OVCAR-4 ovarian) [µM]	TGI (KM12 colon) [µM]	TGI (SN12C renal) [µM]	TGI (UACC-62 melanoma) [µM]	TGI (SF-295 CNS) [µM]	TGI (LOX IMVI melanoma) [µM]	TGI (ACHN renal) [µM]	TGI (MALME-3M melanoma) [µM]	GI50 (RPMI-8226 leukemia) [µM]	GI50 (MOLT-4 leukemia) [µM]	GI50 (OVCAR-4 ovarian) [µM]	GI50 (KM12 colon) [µM]	GI50 (SN12C renal) [µM]	GI50 (UACC-62 melanoma) [µM]	GI50 (SF-295 CNS) [µM]	GI50 (LOX IMVI melanoma) [µM]	GI50 (ACHN renal) [µM]	GI50 (MALME-3M melanoma) [µM]
CN(C)C(=O)OC(Cn1cncn1)c1ccc(Cl)cc1Cl (stereo not given)	> 100	> 100	> 100	> 100	> 100	> 100	> 100	> 100	> 100	> 100	–	–	–	–	–	–	–	–	–	–
Cn1cccc1-c1cc(-c2cccs2)nc(N)c1C#N	> 100	> 100	> 100	> 100	> 100	> 100	> 100	> 100	> 100	> 100	> 100	> 100	> 100	> 100	> 100	87	> 100	> 100	> 100	> 100
Cc1ccc(C(=O)c2nnc(C(=O)c3ccc(C)cc3)nn2)cc1	> 100	> 100	> 100	> 100	> 100	> 100	> 100	35.6	> 100	> 100	–	–	–	–	–	–	–	–	–	–
Cc1csc(=S)n1OC(=O)NC1CCCCC1	> 71.8	> 29.4	> 32.5	> 100	> 100	> 67.2	> 100	> 100	> 100	> 100	–	–	–	–	–	–	–	–	–	–
NCCn1c(=O)[nH]c(=O)[nH]c1=S	> 100	> 100	> 100	> 100	> 100	> 100	> 100	> 100	> 100	> 100	> 100	> 100	> 100	> 100	> 100	> 100	> 100	> 100	> 100	> 100
O=c1cc(-c2ccccc2)[nH]c2ccccc12	> 63	> 100	> 100	> 100	> 100	> 100	> 100	> 100	> 100	> 100	1.18	0.703	0.949	0.464	1.73	0.519	0.458	2.72	0.858	> 100
O=C(N/C(=C\c1ccc2c(c1)OCO2)c1nc2ccccc2[nH]1)c1ccccc1	83.9	56.9	69.4	> 100	> 84.1	56.9	> 100	> 100	> 100	> 89.7	–	–	–	–	–	–	–	–	–	–
COC(=O)C(=O)C1(CCC(C)=O)c2ccccc2-c2c(C)ccc(C)c21 (stereo not given)	78.6	66	> 100	> 100	> 100	> 100	> 100	> 100	> 100	> 100	–	–	–	–	–	–	–	–	–	–
COc1ccc2c(c1)cn1c3ccc(O)cc3nc(N)c21	12.8	21.7	15.7	5.7	19.1	20	4	1.94	5.18	23.2	1.75	1.18	1.57	0.615	0.342	0.09	0.203	0.0712	0.109	0.0714
COc1cc(C(=O)C/C(CCCC(=O)Nc2ccccc2[N+](=O)[O-])=N/NC(=O)c2cc3ccccc3cc2O)ccc1O	> 100	77	> 100	82.5	> 100	53.2	> 100	> 65.4	98.3	> 100	–	–	–	–	–	–	–	–	–	–
COC(C(=O)[O][Ge]([CH3])([CH3])[CH3])c1ccccc1 (stereo not given)	> 100	> 100	> 100	> 100	> 100	> 100	> 100	> 100	> 100	> 100	> 100	> 100	> 100	> 100	> 100	> 100	> 100	> 100	> 100	> 100
Cc1cc(N(CCCl)CCCl)ccc1C=Nc1ccc(-c2csc(Cc3ccccc3)n2)cc1	44	62	> 100	55.6	62.8	16	50.6	20.8	> 91.3	33.2	8.26	2.22	8.01	15.8	3.85	0.621	1.65	7.95	5.35	16.4
CCCC(=O)OC1C(C(O)CO)OC2OC(C)(C)OC21 (stereo not given)	> 100	> 100	> 100	> 100	> 100	> 100	> 100	> 100	> 100	> 100	–	–	–	–	–	–	–	–	–	–
COc1ccc2sc3c(NCCCN(C)C)nc4ccccc4c3c(=O)c2c1	3.66	3.56	3.82	3.18	3.2	3.24	3.27	2.89	2.9	3.18	1.68	1.71	1.8	1.68	1.71	1.8	1.82	1.48	1.56	1.62
CCCC(C)c1cc(Cc2cc(Cl)cc(Cl)c2O)c(O)c(Cc2cc(Cl)cc(Cl)c2O)c1 (stereo not given)	2.5	4.83	13.7	11.4	10.4	4.2	3.56	8.89	10.9	6.75	0.363	1.53	2.02	2.19	0.415	0.629	1.17	2.44	1.99	1.77
C=CCC[CH2][Sn]([c]1ccccc1)([c]1ccccc1)[c]1ccccc1	4.37	5.27	2.86	2.58	2.95	2.36	3.6	2.38	3.07	3.05	1.65	1.26	1.48	1.31	1.57	1.11	1.99	1.16	1.66	1.56
O=C1[C@H]2ON(c3ccccc3)C(c3ccccc3Cl)[C@H]2C(=O)N1c1ccc(Cc2ccc(N3C(=O)[C@@H]4ON(c5ccccc5)C(c5ccccc5Cl)[C@@H]4C3=O)cc2)cc1 (stereo not given in full)	> 100	> 100	> 100	> 100	> 100	> 100	> 100	> 100	> 100	> 100	–	–	–	–	–	–	–	–	–	–
CC(=O)OCC1OC(OC2C(CSC3OC(COC(C)=O)C(OC(C)=O)C(OC(C)=O)C3OC(C)=O)OC(OC(C)=O)C(OC(C)=O)C2OC(C)=O)C(OC(C)=O)C(OC(C)=O)C1OC(C)=O (stereo not given)	> 100	> 100	> 100	> 100	> 100	> 100	> 100	> 100	> 100	> 100	–	–	–	–	–	–	–	–	–	–
CC1(C)CC(=O)c2c(C(F)(F)F)nn(-c3ccc(C(N)=O)c(NC4CCC(OC(=O)CN)CC4)c3)c2C1 (stereo not given)	> 60.1	24.4	> 100	> 100	> 100	14.5	> 100	0.33	> 100	> 100	0.356	0.0437	> 25.1	0.0434	0.0692	0.0507	0.0593	0.0616	0.0622	0.0468
CC#C[C@]1(O)CC[C@H]2[C@@H]3CCC4=CC(=O)CCC4=C3[C@@H](c3ccc4c(c3)OCO4)C[C@@]21C	331	> 1000	989	299	464	204	329	253	633	556	49.4	49.5	61.1	112	83.2	50	67.8	113	47.4	173
COc1ccc(OC)c(/C=C2\SC(=S)NC2=O)c1	> 100	> 100	> 100	> 100	77.4	53.4	> 100	> 100	95.1	92.8	36.7	44.8	62.9	58.7	24.8	17.7	42.8	26.6	26.7	34.6
N#C/C(=C\c1ccc(O)c(O)c1)C(N)=S	> 100	> 100	> 100	> 100	> 100	> 100	> 100	> 100	> 100	> 100	–	–	–	–	–	–	–	–	–	–
CCOc1ccc(NC(=O)C(=O)CC(=O)C2=C(C)Nc3ccccc3S2)cc1	> 50	> 50	> 50	> 50	> 50	> 50	> 50	> 50	> 50	> 50	–	–	–	–	–	–	–	–	–	–
CN(C)CCNc1c2c(c(NCCN(C)C)c3[nH]ccc13)C(=O)c1ccccc1C2=O	2.79	–	3.11	2.26	2.61	14.8	3.25	3.39	5.56	11.9	0.737	0.199	1.05	0.347	0.519	1.64	0.693	0.737	0.476	3.3
CC1OC(O[C@@H]2OC=C(C=O)[C@@]3(O)CC[C@H](C)[C@@H]23)C(O)C(O)C1O (stereo not given in full)	> 100	> 100	> 100	> 100	> 100	> 100	> 100	> 100	> 100	> 100	–	–	–	–	–	–	–	–	–	–
N#Cc1c(N2CCCC2)[nH]c(=O)c(C(c2c(Cl)cccc2Cl)c2c(O)c(C#N)c(N3CCCC3)[nH]c2=O)c1O	18.4	> 100	33.7	54	33.9	20.5	37.4	37.2	34.1	36.4	2.54	> 100	17.5	22.6	13.6	4.71	18.7	11.6	16.8	19.3
COc1ccc(OC)c(NC(=O)C2=C(C)NC(C)=C(C(=O)Nc3cc(OC)ccc3OC)C2c2ccccc2)c1	> 100	> 100	> 100	> 100	> 100	> 100	> 100	> 100	> 100	> 100	–	–	–	–	–	–	–	–	–	–
CSc1ccc(C2OC(=O)c3ccccc32)c2ccccc12 (stereo not given)	> 100	> 100	> 100	> 100	> 100	> 100	> 100	> 100	> 100	> 100	–	–	–	–	–	–	–	–	–	–
O=C1c2cccnc2C(=O)c2nc3cc(N4CCN(C5CC5)CC4)ccc3nc21	8.63	5.62	2.55	5.11	1.88	0.631	1.59	1.86	4.34	0.457	2.4	2.4	1.27	1.25	0.519	0.222	0.41	0.416	0.6	0.178
COc1ccc2c(c1)/C(=C\c1c(C)nc3sccn13)C(=O)N2	> 26.4	–	> 100	25.5	> 91.7	3.35	–	> 100	69.4	97.4	–	< 0.0462	4.01	< 0.0402	0.0889	< 0.0356	< 0.0466	< 0.01	–	< 0.0478
